Source: ChEMBL document CHEMBL5512666, “Selenization of Small Molecule Drugs: A New Player on the Board” (J Med Chem, 2024)
≈ marks a conversion by molar mass, not a printed value.

Key:
[1] = Cytotoxicity against human MDA-MB-231 cells assessed as reduction in cell viability incubated for 96 hrs by MTT assay; type: toxicity, cell-based
Candida albicans [2] = test: Antifungal activity against azole-resistant Candida albicans clinical isolate CaR assessed as fungal growth inhibition incubated for 24 hrs by CLSI protocol based broth microdilution method; type: functional
[3] = Cytotoxicity against human SGC cells assessed as reduction in cell viability incubated for 96 hrs by MTT assay; type: toxicity, cell-based
[4] = Cytotoxicity against human A549 cells assessed as reduction in cell viability incubated for 96 hrs by MTT assay; type: toxicity, cell-based
Candida albicans [5] = test: Antifungal activity against azole-resistant Candida albicans clinical isolate 904 assessed as fungal growth inhibition incubated for 24 hrs by CLSI protocol based broth microdilution method; type: functional
Candida albicans [6] = test: Antifungal activity against azole-resistant Candida albicans clinical isolate 901 assessed as fungal growth inhibition incubated for 24 hrs by CLSI protocol based broth microdilution method; type: functional
Candida albicans [7] = test: Antifungal activity against azole-resistant Candida albicans clinical isolate 632 assessed as fungal growth inhibition incubated for 24 hrs by CLSI protocol based broth microdilution method; type: functional
Candida albicans [8] = test: Antifungal activity against azole-resistant Candida albicans clinical isolate 17 assessed as fungal growth inhibition incubated for 24 hrs by CLSI protocol based broth microdilution method; type: functional
OVCAR-3 = test: Antiproliferative activity against human OVCAR-3 cells; type: functional, cell-based
[9] = Antiproliferative activity against human HEY A8 cells; type: functional, cell-based
ES-2 = test: Antiproliferative activity against human ES2 cells; type: functional, cell-based
[10] = Antiproliferative activity against human OVCAR-10 cells; type: functional, cell-based
HEK-293T = test: Antiproliferative activity against HEK293T; type: functional, cell-based; conditions: Homo sapiens
[11] = Antioxidant activity assessed as reduction in peroxynitrite mediated L-tyrosine nitration by measuring remaining activity relative to control; type: functional; design: concentration or dose not given beside the values
[12] = Antioxidant activity assessed as inhibition of peroxynitrite mediated L-tyrosine nitration in sodium phosphate buffer at pH 7.5 incubated for 7 mins by RP-HPLC analysis; type: functional
Candida albicans [13] = test: Antifungal activity against Candida albicans SC5314; type: functional
Cryptococcus neoformans = test: Antifungal activity against Cryptococcus neoformans CGMCC 2.3161; type: functional
Aspergillus fumigatus = test: Antifungal activity against Aspergillus fumigatus CGMCC 3.7795; type: functional
Nakaseomyces glabratus = test: Antifungal activity against Candida glabrata; type: functional
Pichia kudriavzevii = test: Antifungal activity against Candida krusei AS 2.1045; type: functional
[14] = Stability in rat plasma assessed as half life; type: ADME, cell-free
Candida tropicalis = test: Antifungal activity against Candida tropicalis CGMCC 2.3739; type: functional
Candida albicans [15] = test: Antifungal activity against Candida albicans CPCC 400616; type: functional
Candida parapsilosis = test: Antifungal activity against Candida parapsilosis 22019; type: functional; conditions: Lodderomyces parapsilosis
MHCC97H = test: Antiproliferative activity against human MHCC97H cells assessed as reduction in cell viability incubated for 48 hrs by MTT assay; type: functional, cell-based
[16] = Inhibition of TrxR (unknown origin) expressed in MHCC97H cells incubated for 24 hrs by colorimetric assay; type: cell-based, Homo sapiens
A549 = test: Cytotoxicity against human A549 cells assessed as inhibition of cell growth incubated for 96 hrs by MTT assay; type: functional, cell-based; conditions: A549, 96 h
HepG2 = test: Cytotoxicity against human HepG2 cells assessed as inhibition of cell growth incubated for 96 hrs by MTT assay; type: functional, cell-based; conditions: HepG2, 96 h
HeLa = test: Cytotoxicity against human HeLa cells assessed as inhibition of cell growth incubated for 96 hrs by MTT assay; type: functional, cell-based
SMMC-7721 = test: Cytotoxicity against human SMMC-7721 cells assessed as inhibition of cell growth incubated for 96 hrs by MTT assay; type: functional, cell-based; conditions: SMMC-7721, 96 h

With `Clc1ccc(-c2nn[se]c2-n2cncn2)c(Cl)c1` the IC50 at 96 h [1] was 23.5 µg/mL (≈ 68.1 µM), the MIC (Candida albicans [2]) was 4 µg/mL (≈ 11.6 µM) and the IC50 at 96 h [3] was 19.5 µg/mL (≈ 56.5 µM). It also gave an IC50 at 96 h [4] of 16.9 µg/mL (≈ 49.1 µM), an MIC (Candida albicans [5]) of 32 µg/mL (≈ 92.7 µM) and an MIC (Candida albicans [6]) of 8 µg/mL (≈ 23.2 µM). The MIC (Candida albicans [7]) was 16 µg/mL (≈ 46.4 µM) and the MIC (Candida albicans [8]) was 4 µg/mL (≈ 11.6 µM).

`O=C1N[C@H]2[C@H](CS[C@H]2CCCCC(=O)[Se]Cc2ccccc2)N1` showed an IC50 (OVCAR-3) of 36.9 µM, an IC50 [9] of 17.3 µM and an IC50 (ES-2) of 16.2 µM. The IC50 [10] was 47.2 µM and the IC50 (HEK-293T) was 6.57 µM.

`Cn1ccnc1S` [METHIMAZOLE] gave an Activity [11] of 32.5% and an IC50 [12] of 23.9 µM.

`C=C1N(C)C=CN1CCCn1ccn(C)c1=[Se]` showed an Activity [11] of 29%.

Work on `Cc1ccccc1[Se]C(Cn1ccnc1)c1ccc(Cl)cc1` (configuration not stated) yielded an MIC (Candida albicans [13]) of 0.03 µg/mL (≈ 0.0798 µM), an MIC (Cryptococcus neoformans) of 0.5 µg/mL (≈ 1.33 µM) and an MIC (Aspergillus fumigatus) of 4 µg/mL (≈ 10.6 µM). The MIC (Nakaseomyces glabratus) was 0.5 µg/mL (≈ 1.33 µM), the MIC (Pichia kudriavzevii) was 0.13 µg/mL (≈ 0.346 µM) and the half-life [14] was > 6 h. For the same compound, the MIC (Candida tropicalis) was 0.03 µg/mL (≈ 0.0798 µM), the MIC (Candida albicans [15]) was 0.06 µg/mL (≈ 0.16 µM) and the MIC (Candida parapsilosis) was 0.5 µg/mL (≈ 1.33 µM).

Work on `Cc1cccc(C)c1[Se]C(Cn1ccnc1)c1ccc(Cl)cc1` (configuration not stated) yielded an MIC (Candida albicans [13]) of 0.03 µg/mL (≈ 0.077 µM), an MIC (Cryptococcus neoformans) of 0.13 µg/mL (≈ 0.334 µM) and an MIC (Aspergillus fumigatus) of 1 µg/mL (≈ 2.57 µM). The MIC (Nakaseomyces glabratus) was 0.13 µg/mL (≈ 0.334 µM), the MIC (Pichia kudriavzevii) was 0.03 µg/mL (≈ 0.077 µM) and the MIC (Candida tropicalis) was 0.06 µg/mL (≈ 0.154 µM). For the same compound, the MIC (Candida albicans [15]) was 0.03 µg/mL (≈ 0.077 µM) and the MIC (Candida parapsilosis) was 0.03 µg/mL (≈ 0.077 µM).

`N#Cc1cccc(-c2ccc(=O)n(Cc3cccc(-c4ncc([Se]CCN5CCCC5)cn4)c3)n2)c1` showed an IC50 (MHCC97H) of 0.063 µM and an IC50 [16] of 0.8 µM.

For `COc1cccc(Cn2ccn(Cc3cccc(OC)c3)c2=[Se])c1`, the Activity [11] was 82% and the IC50 [12] was 42.2 µM.

For `Nc1ccn([C@@H]2O[C@H](CO)[C@@H](O)C2(F)F)c(=O)n1` [GEMCITABINE], the IC50 (A549) was 0.69 µM, the IC50 (HepG2) was 2.46 µM and the IC50 (HeLa) was 3.9 µM. It also gave an IC50 (SMMC-7721) of 0.46 µM.

For `O=C(Nc1ccn([C@@H]2O[C@H](CO)[C@@H](O)C2(F)F)c(=O)n1)OC1C[Se][Se]C1`, the IC50 (A549) was 0.11 µM, the IC50 (HepG2) was 0.47 µM and the IC50 (HeLa) was 0.88 µM. The IC50 (SMMC-7721) was 0.33 µM.

Work on `CN(C)CCC[Se]c1cnc(-c2cccc(Cn3nc(-c4cccc(C#N)c4)ccc3=O)c2)nc1` yielded an IC50 (MHCC97H) of 0.01 µM.

With `CCCc1cc(=O)[nH]c(=S)[nH]1` [PROPYLTHIOURACIL] the IC50 [12] was 95 µM.
